ChEMBL document CHEMBL1201862, “PubChem BioAssay data set” (2004)
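Assay format: 96-well plates, 48-hour exposure. Here, GI50 denotes the concentration required for 50% inhibition of growth.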 Active and inactive are the calls of the source. Cut-off read from the data, not from the text of the source: active = GI50 up to about 1.1 µM and inactive = higher.

Assays:
Assay in all cases: growth of human tumour cells (NCI), 48 h
SK-MEL-2 = test system: SK-MEL-2
Malme-3M = test system: Malme-3M
Hs-578T = test system: Hs-578T
UACC-62 = test system: UACC-62
OVCAR-3 = test system: OVCAR-3
T47D = test system: T47D
RXF 393 = test system: RXF 393
SF-295 = test system: SF-295
OVCAR-8 = test system: OVCAR-8
DU-145 = test system: DU-145
SNB-75 = test system: SNB-75
K562 = test system: K562
MDA-MB-435 = test system: MDA-MB-435
UACC-257 = test system: UACC-257
HCT-15 = test system: HCT-15
ACHN = test system: ACHN
EKVX = test system: EKVX

| Structure (SMILES) | GI50 (SK-MEL-2) | GI50 (Malme-3M) | GI50 (Hs-578T) | GI50 (UACC-62) | GI50 (OVCAR-3) | GI50 (T47D) | GI50 (RXF 393) | GI50 (SF-295) | GI50 (OVCAR-8) | GI50 (DU-145) | GI50 (SNB-75) | GI50 (K562) | GI50 (MDA-MB-435) | GI50 (UACC-257) | GI50 (HCT-15) | GI50 (ACHN) | GI50 (EKVX) |
| --- | --- | --- | --- | --- | --- | --- | --- | --- | --- | --- | --- | --- | --- | --- | --- | --- | --- |
| CC1=Nn2c(nc3sc4c(c3c2=O)CCCC4)SC1 | > 100 µM (inactive) | > 94.2 µM (inactive) | > 90.4 µM (inactive) | 76.4 µM (inactive) | 76 µM (inactive) | 58.5 µM (inactive) | > 75.7 µM (inactive) | > 100 µM (inactive) | > 100 µM (inactive) | > 86.1 µM (inactive) | 64.9 µM (inactive) | 39.9 µM (inactive) | > 77.1 µM (inactive) | > 100 µM (inactive) | 52.6 µM | > 51.6 µM (inactive) | > 69.5 µM (inactive) |
| O=c1[nH]c(N/N=C\C(O)C(O)C(O)CO)nc2ccccc12 (stereo not given) | > 100 µM (inactive) | – | > 100 µM (inactive) | > 100 µM (inactive) | > 100 µM (inactive) | > 100 µM (inactive) | – | > 100 µM (inactive) | > 100 µM (inactive) | > 100 µM (inactive) | > 100 µM (inactive) | > 100 µM (inactive) | > 100 µM (inactive) | > 100 µM (inactive) | > 100 µM | > 100 µM (inactive) | > 100 µM (inactive) |
| C[C@]12CC[C@H](O)CC1=CC[C@@H]1C2CC[C@]2(C)c3nn(-c4ccc(F)cc4)nc3CC12 (stereo not given in full) | – | 74 µM (inactive) | 39.3 µM (inactive) | 43.7 µM (inactive) | > 100 µM (inactive) | 24.4 µM (inactive) | 61.5 µM (inactive) | 34 µM (inactive) | 85.7 µM (inactive) | 88.3 µM (inactive) | 28.6 µM (inactive) | 4.51 µM (inactive) | 87.3 µM (inactive) | 46.8 µM (inactive) | – | 33.1 µM (inactive) | > 100 µM (inactive) |
| COC(=O)[C@H](C)NC(=O)[C@H](NS(=O)(=O)c1nc2ccccc2s1)c1ccccc1 | 11.3 µM (inactive) | – | 8.2 µM (inactive) | 14.9 µM (inactive) | – | 15.3 µM (inactive) | 16.9 µM (inactive) | 39.1 µM (inactive) | 16.7 µM (inactive) | 15.2 µM (inactive) | 18.6 µM (inactive) | 94.4 µM (inactive) | 41 µM (inactive) | 12.9 µM (inactive) | 23.3 µM | 33.9 µM (inactive) | 47.6 µM (inactive) |
| C=CCCCCCCCCC(=O)ON(Cc1ccc(O)c(OC)c1)C(=O)C(F)(F)F | – | > 100 µM (inactive) | 10.8 µM (inactive) | 49 µM (inactive) | – | 72.1 µM (inactive) | > 100 µM (inactive) | > 100 µM (inactive) | > 100 µM (inactive) | > 100 µM (inactive) | > 100 µM (inactive) | 75 µM (inactive) | > 100 µM (inactive) | > 100 µM (inactive) | > 100 µM | > 100 µM (inactive) | > 100 µM (inactive) |
| CC1(C)OC2C(CO)OC(n3cnc(N)nc3=O)C2O1 (stereo not given) | > 100 µM (inactive) | – | > 100 µM (inactive) | > 100 µM (inactive) | > 100 µM (inactive) | > 100 µM (inactive) | > 100 µM (inactive) | > 100 µM (inactive) | > 100 µM (inactive) | > 100 µM (inactive) | – | > 100 µM (inactive) | > 100 µM (inactive) | > 100 µM (inactive) | > 100 µM | > 100 µM (inactive) | > 100 µM (inactive) |
| C(=N\N=C1NCCN1)/c1ccc2ccccc2c1 | 19.5 µM (inactive) | 14.2 µM (inactive) | 19.5 µM (inactive) | 14.4 µM (inactive) | 16.1 µM (inactive) | 23.1 µM (inactive) | 17.7 µM (inactive) | 14.9 µM (inactive) | 16.4 µM (inactive) | 31.2 µM (inactive) | 29.5 µM (inactive) | 11.6 µM (inactive) | 15.6 µM (inactive) | 13.2 µM (inactive) | 18.2 µM | 16.5 µM (inactive) | 12.6 µM (inactive) |
| OCC1OC(n2cnc3c2N=CNC[C@H]3O)C(Cl)C1O (stereo not given in full) | > 100 µM (inactive) | > 100 µM (inactive) | > 100 µM (inactive) | > 100 µM (inactive) | > 100 µM (inactive) | > 100 µM (inactive) | – | > 100 µM (inactive) | > 100 µM (inactive) | > 100 µM (inactive) | > 100 µM (inactive) | – | > 100 µM (inactive) | > 100 µM (inactive) | > 100 µM | > 100 µM (inactive) | > 100 µM (inactive) |
| O=C(Cc1ccc(OCc2cccc(Cl)c2)cc1)NO | 21 µM (inactive) | – | 30 µM (inactive) | 18.7 µM (inactive) | 22.2 µM (inactive) | 5.74 µM (inactive) | 26 µM (inactive) | 32 µM (inactive) | 11.7 µM (inactive) | 21.5 µM (inactive) | 25.8 µM (inactive) | 16.1 µM (inactive) | 41.8 µM (inactive) | 53.5 µM (inactive) | 14.1 µM | 25.2 µM (inactive) | 25.3 µM (inactive) |
| c1ccc(Cc2cc(-c3ccccc3)[nH]n2)cc1 | 16.5 µM (inactive) | – | 15.3 µM (inactive) | 14.4 µM (inactive) | 0.0465 µM (active) | 33.3 µM (inactive) | 10.3 µM (inactive) | 0.568 µM (active) | 13.5 µM (inactive) | 11.5 µM (inactive) | < 0.01 µM (active) | 13 µM (inactive) | 10.3 µM (inactive) | 13.3 µM (inactive) | 18.5 µM | 15.8 µM (inactive) | 10.6 µM (inactive) |
| O=C(c1ccccc1)N(C(=O)c1ccccc1)c1nc(SCc2ccccc2)ns1 | 21.9 µM (inactive) | 22.7 µM (inactive) | 26.1 µM (inactive) | 17.1 µM (inactive) | 22.3 µM (inactive) | 25 µM (inactive) | 31.7 µM (inactive) | 25.1 µM (inactive) | 36.6 µM (inactive) | 30.9 µM (inactive) | 22.6 µM (inactive) | 29.1 µM (inactive) | 29.4 µM (inactive) | 22.2 µM (inactive) | 23.9 µM | 41.6 µM (inactive) | 25.7 µM (inactive) |
| O=c1/c(=C/c2ccccn2)sc2nc3cc4c(cc3n12)OCCO4 | > 100 µM (inactive) | > 100 µM (inactive) | > 100 µM (inactive) | > 100 µM (inactive) | > 100 µM (inactive) | > 100 µM (inactive) | > 100 µM (inactive) | > 100 µM (inactive) | > 100 µM (inactive) | > 100 µM (inactive) | 91.8 µM (inactive) | > 100 µM (inactive) | > 100 µM (inactive) | > 100 µM (inactive) | > 100 µM | > 100 µM (inactive) | – |
| Nc1ncnc2c1ncn2[C@@H]1O[C@H](COP(=O)(O)OP(=O)(O)OC[C@H]2O[C@@H](OCCCO)[C@H](O)[C@@H]2O)[C@@H](O)[C@H]1O | > 100 µM (inactive) | > 100 µM (inactive) | > 100 µM (inactive) | > 100 µM (inactive) | > 100 µM (inactive) | > 100 µM (inactive) | > 100 µM (inactive) | > 100 µM (inactive) | > 100 µM (inactive) | > 100 µM (inactive) | > 100 µM (inactive) | > 100 µM (inactive) | > 100 µM (inactive) | > 100 µM (inactive) | 60 µM | > 100 µM (inactive) | > 100 µM (inactive) |
| Cc1ccc(SCC(CF)OC(C)n2cnc3c(Cl)nc(N)nc32)cc1 (stereo not given) | 69.8 µM (inactive) | 93.5 µM (inactive) | > 100 µM (inactive) | > 100 µM (inactive) | 85.7 µM (inactive) | 54.6 µM (inactive) | – | 67.9 µM (inactive) | 69.7 µM (inactive) | > 100 µM (inactive) | > 100 µM (inactive) | – | 78.3 µM (inactive) | 19.3 µM (inactive) | > 100 µM | 35.2 µM (inactive) | – |
| Cc1ccc(-c2cc(O)c3nc4ccccc4n3c2)cc1 | – | > 100 µM (inactive) | > 100 µM (inactive) | > 100 µM (inactive) | > 100 µM (inactive) | > 100 µM (inactive) | > 100 µM (inactive) | > 100 µM (inactive) | 54.3 µM (inactive) | > 100 µM (inactive) | > 100 µM (inactive) | > 100 µM (inactive) | 5.27 µM (inactive) | > 100 µM (inactive) | > 100 µM | – | > 100 µM (inactive) |
| CC(=O)/C=C/C=C(\C)CC/C=C(\C)CC(C)C | 20 µM (inactive) | – | 53.5 µM (inactive) | 18.1 µM (inactive) | 26.4 µM (inactive) | 14.6 µM (inactive) | 16.2 µM (inactive) | 30.8 µM (inactive) | 23.7 µM (inactive) | 58.6 µM (inactive) | 35.2 µM (inactive) | 21.6 µM (inactive) | 27.9 µM (inactive) | 23.3 µM (inactive) | 16 µM | 29.9 µM (inactive) | 37.3 µM (inactive) |
| CC(/C=N/N(C)C1=NCCCN1)=N/N(C)C1=NCCCN1 | > 100 µM (inactive) | > 100 µM (inactive) | > 100 µM (inactive) | > 100 µM (inactive) | > 100 µM (inactive) | > 100 µM (inactive) | > 100 µM (inactive) | > 100 µM (inactive) | > 100 µM (inactive) | > 100 µM (inactive) | > 100 µM (inactive) | > 100 µM (inactive) | > 100 µM (inactive) | > 100 µM (inactive) | > 100 µM | > 100 µM (inactive) | > 100 µM (inactive) |
| CC(=O)OCC12C(OC(C)=O)C(=O)C3C(OC(C)=O)C14OC3(C)COC(=O)c1cccnc1C(C)C(C)C(=O)OC(C(OC(C)=O)C2OC(C)=O)C4(C)O (stereo not given) | > 100 µM (inactive) | > 100 µM (inactive) | > 100 µM (inactive) | > 100 µM (inactive) | > 100 µM (inactive) | > 100 µM (inactive) | > 100 µM (inactive) | > 100 µM (inactive) | > 100 µM (inactive) | > 100 µM (inactive) | > 100 µM (inactive) | > 100 µM (inactive) | > 100 µM (inactive) | > 100 µM (inactive) | > 100 µM | > 100 µM (inactive) | > 100 µM (inactive) |
